# Assay results taken from patent US20250213558A1, “T-TYPE CALCIUM CHANNEL MODULATORS COMPRISING A PIPERAZINE OR 1,4-DIAZEPANE CORE AND METHODS OF USE THEREOF” (Praxis Precision Medicines, Inc., priority 2022, published 2025).
# pIC50: −log10 of the molar value. Where two headings read alike, the source gives them in different places.
# Biological target: T1, Human Cav3.1 calcium channel (Homo sapiens, UniProt O43497)
# T1 construct: expressed in transfected cells; host or cells: HEK-293 natClytin/TASK1+Cav3.1 cell line
# T1 sequence (O43497 whole entry): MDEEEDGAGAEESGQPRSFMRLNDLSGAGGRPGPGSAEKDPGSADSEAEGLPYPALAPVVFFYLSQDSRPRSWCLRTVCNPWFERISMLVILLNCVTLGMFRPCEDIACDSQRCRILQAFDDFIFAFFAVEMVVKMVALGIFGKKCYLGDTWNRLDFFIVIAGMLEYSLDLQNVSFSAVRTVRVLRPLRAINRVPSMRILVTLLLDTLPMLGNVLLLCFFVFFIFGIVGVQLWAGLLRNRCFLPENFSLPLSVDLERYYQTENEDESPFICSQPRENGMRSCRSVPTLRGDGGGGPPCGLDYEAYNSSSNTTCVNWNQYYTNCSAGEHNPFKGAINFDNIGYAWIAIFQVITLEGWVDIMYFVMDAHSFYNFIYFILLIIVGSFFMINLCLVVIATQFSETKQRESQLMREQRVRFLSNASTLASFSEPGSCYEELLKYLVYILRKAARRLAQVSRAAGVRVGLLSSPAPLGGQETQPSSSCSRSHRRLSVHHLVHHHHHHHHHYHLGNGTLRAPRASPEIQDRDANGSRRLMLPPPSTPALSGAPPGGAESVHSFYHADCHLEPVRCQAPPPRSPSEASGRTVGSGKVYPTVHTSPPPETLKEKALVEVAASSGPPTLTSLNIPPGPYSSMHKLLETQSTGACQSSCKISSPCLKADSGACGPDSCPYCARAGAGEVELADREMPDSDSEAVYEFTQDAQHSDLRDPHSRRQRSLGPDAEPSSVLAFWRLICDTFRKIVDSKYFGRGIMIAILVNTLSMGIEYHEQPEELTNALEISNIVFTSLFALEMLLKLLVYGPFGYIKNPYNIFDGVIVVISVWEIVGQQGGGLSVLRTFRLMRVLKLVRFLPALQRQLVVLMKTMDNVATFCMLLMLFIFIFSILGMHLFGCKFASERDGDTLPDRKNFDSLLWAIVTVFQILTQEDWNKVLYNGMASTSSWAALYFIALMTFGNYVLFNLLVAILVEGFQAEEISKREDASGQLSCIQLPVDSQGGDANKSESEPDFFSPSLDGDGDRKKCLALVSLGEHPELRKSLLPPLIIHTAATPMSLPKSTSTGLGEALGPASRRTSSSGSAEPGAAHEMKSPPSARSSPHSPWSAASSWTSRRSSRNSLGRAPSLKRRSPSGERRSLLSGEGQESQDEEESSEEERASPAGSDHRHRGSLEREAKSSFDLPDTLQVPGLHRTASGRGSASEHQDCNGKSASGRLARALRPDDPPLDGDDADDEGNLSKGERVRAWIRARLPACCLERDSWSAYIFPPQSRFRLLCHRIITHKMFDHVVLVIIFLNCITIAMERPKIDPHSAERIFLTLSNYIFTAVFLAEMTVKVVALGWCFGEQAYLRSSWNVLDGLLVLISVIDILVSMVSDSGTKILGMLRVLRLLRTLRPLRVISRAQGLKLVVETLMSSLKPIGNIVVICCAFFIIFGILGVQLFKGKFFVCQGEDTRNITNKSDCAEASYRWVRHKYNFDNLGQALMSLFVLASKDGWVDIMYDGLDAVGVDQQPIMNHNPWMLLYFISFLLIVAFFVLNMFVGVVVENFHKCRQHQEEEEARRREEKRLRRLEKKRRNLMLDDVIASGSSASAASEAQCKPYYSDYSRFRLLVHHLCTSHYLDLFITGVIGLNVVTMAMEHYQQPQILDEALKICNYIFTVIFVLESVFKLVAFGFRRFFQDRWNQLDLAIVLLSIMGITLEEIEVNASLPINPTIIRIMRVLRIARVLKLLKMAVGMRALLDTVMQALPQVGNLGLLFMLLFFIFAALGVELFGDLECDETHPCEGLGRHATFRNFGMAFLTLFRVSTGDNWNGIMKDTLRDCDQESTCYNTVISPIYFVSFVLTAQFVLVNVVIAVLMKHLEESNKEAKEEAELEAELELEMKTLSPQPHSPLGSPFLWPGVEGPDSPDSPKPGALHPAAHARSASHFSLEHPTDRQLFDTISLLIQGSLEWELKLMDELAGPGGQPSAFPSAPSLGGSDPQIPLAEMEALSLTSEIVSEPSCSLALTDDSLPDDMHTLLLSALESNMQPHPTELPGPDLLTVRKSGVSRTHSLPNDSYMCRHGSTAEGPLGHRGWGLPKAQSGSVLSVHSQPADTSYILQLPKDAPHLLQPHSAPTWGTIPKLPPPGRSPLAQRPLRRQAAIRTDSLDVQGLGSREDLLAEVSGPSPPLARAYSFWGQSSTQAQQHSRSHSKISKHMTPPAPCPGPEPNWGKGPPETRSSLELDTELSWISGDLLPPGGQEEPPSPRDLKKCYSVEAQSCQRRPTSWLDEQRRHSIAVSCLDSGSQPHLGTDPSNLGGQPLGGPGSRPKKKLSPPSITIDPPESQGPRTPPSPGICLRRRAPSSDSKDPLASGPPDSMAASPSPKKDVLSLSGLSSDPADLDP
# Assay: Human Cav3.1 calcium channel patch clamp assay (SyncroPatch 384PE; single point and IC50, voltage dependent block)
# Assay type: cell-based
# Conditions: for % Inhibition (Single Point Data): Testing Conc 1.25, patch clamp
# How it was run: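 Automated whole-cell patch clamp at room temperature, cells held at −120 mV; 100 ms step to −20 mV (resting block), then 1600 ms at −65 mV and a second −20 mV step (voltage-dependent block), every 15 s. Peak currents averaged over last 3 sweeps; % inhibition relative to nickel-sensitive current.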
# [1] = HEK-293 natClytin/TASK1+Cav3.1 cell line
# [2] = voltage dependent block (VDB), HEK-293 natClytin/TASK1+Cav3.1 cell line, read-out: Cav3.1 IC50
SMILES,% Inhibition (Single Point Data) [1] [%],pIC50 [2],pIC50
CC(C)(C)NC(=O)CN1C2CC1CN(c1nc3c(Cl)cc(F)cc3[nH]1)C2 [Compound 209],24.65,5.29,
CC(C)(C)NC(=O)CN1C2CC1CN(CC(=O)NC13CC4CC(CC(F)(C4)C1)C3)C2 [Compound 315],72.558,6.23,
COc1ccc(F)c(NC(=O)CN2CC3CC(C2)N3CC(=O)NC(C)(C)C)c1 [Compound 222],52.3,5.96,
CC(C)(C)NC(=O)CN1CC2CC1CN2CC(=O)Nc1ccc(F)c(Cl)c1 (stereo not shown) [Compound 233],83.643,6.64,
Fc1cc(Cl)c2nc(CN3CCN(Cc4ccc5c(c4)OCCO5)CC3)[nH]c2c1 [Compound 68],87.04,6.67,
N#CC1(CN2C3CC2CN(CC(=O)Nc2cc(F)cc(Cl)c2)C3)CCCCC1 [Compound 51],29.781,5.84,
CC(C)(C)NC(=O)CN1CC2CC1CN2Cc1nc2c(Cl)cc(F)cc2[nH]1 (stereo not shown) [Compound 126],94.215,,
N#CC1(CN2C3CC2CN(Cc2nc4c(Cl)ccc(F)c4[nH]2)C3)CCCCC1 [Compound 178],43.012,5.86,
COc1cc(F)cc(NC(=O)CN2C[C@@H]3C[C@H]2CN3CC(=O)NC(C)(C)C)c1 [Compound 275],93.716,,
CC(C)(C)NC(=O)CN1C[C@@H]2C[C@H]1CN2CC(=O)NC12CC3CC(CC(C3)C1)C2 [Compound 259],91.279,,
O=C(CN1C[C@@H]2C[C@H]1CN2CCC1CCOCC1)NC12CC3CC(CC(C3)C1)C2 [Compound 291],18.238,5.48,
Cc1ccc(Cl)cc1NC(=O)CN1CC2CC(C1)N2CC(=O)NC(C)(C)C [Compound 221],48.175,6.05,
O=C(CN1C[C@@H]2C[C@H]1CN2CC(=O)NC1(C(F)(F)F)CC1)Nc1cc(F)cc(OC(F)F)c1 [Compound 324],100.07,,
CC1(NC(=O)CN2C3CC2CN(Cc2nc4c(Cl)ccc(F)c4[nH]2)C3)COC1 [Compound 174],75.268,,
COc1cc(Cl)cc(NC(=O)CN2CC3CC(C2)N3CC(=O)NC2(C(F)(F)F)CC2)c1 [Compound 334],79.86,,
CC1(C)CC(CN2C3CCC2CN(Cc2nc4c(Cl)cc(F)cc4[nH]2)C3)CCO1 (stereo not shown) [Compound 96],93.367,6.69,
Cc1cccc2[nH]c(C(C)N3CC4CC(C3)N4CC(=O)NC(C)(C)C)nc12 (stereo not shown) [Compound 199],54.078,6.06,
CC(C)(C)NC(=O)CN1C2CC1CN(CC(=O)NC13CCC(CC1)C3)C2 [Compound 308],33.02,5.72,
CC(C)(C)NC(=O)CN1C2CCC1CN(Cc1ncc3ccccc3n1)C2 [Compound 186],5.7091,,
CC(C)(C)NC(=O)CN1C2CC1CN(Cc1nc3c(F)ccc(F)c3[nH]1)C2 [Compound 165],87.314,,
CC(C)(C)NC(=O)CN1C2CC1CN(CC(=O)Nc1cc(F)c(F)c(Cl)c1)C2 [Compound 350],,> 7.11,

SMILES,% Inhibition (Single Point Data) [1] [%],pIC50 [2],pIC50
CC(C)(NC(=O)CN1C2CC1CN(Cc1nc3c(F)ccc(F)c3[nH]1)C2)C(F)(F)F [Compound 166],87.157,6.60,
O=C(CN1CC2CC1CN2CC(=O)NC1(C(F)(F)F)CC1)Nc1ccc(F)c(Cl)c1 (stereo not shown) [Compound 238],79.048,,
COc1cccc2[nH]c(CN3CC4CCC(C3)N4CC(=O)NC(C)(C)C)nc12 [Compound 192],76.034,6.48,
COc1cc(Cl)cc(NC(=O)CN2C[C@@H]3C[C@H]2CN3CC(=O)NC(C)(C)C)c1 [Compound 282],98.739,7.13,
CC(C)(C)NC(=O)CN1C2CC1CN(C(=O)c1nc3c(Cl)cc(F)cc3[nH]1)C2 [Compound 210],,5.72,
CC(C)(C)NC(=O)CN1C2CC1CN(CC(=O)Nc1ccc(F)c(OC(F)(F)F)c1)C2 [Compound 242],93.661,6.75,
O=C(CN1C[C@@H]2C[C@H]1CN2CC(=O)N1CCC(F)(F)CC1)NC12CC3CC(CC(C3)C1)C2 [Compound 316],70.161,6.43,
O=C(CN1CC2CC1CN2CCNC(=O)C1(C(F)(F)F)CCC1)Nc1cc(F)cc(Cl)c1 (stereo not shown) [Compound 228],87.61,6.62,
CC(C)(C)NC(=O)CN1CC2CCC1CN2Cc1nc2c(Cl)cc(F)cc2[nH]1 (stereo not shown) [Compound 63],93.839,6.78,
CC1(S(=O)(=O)NCCN2C3CC2CN(Cc2nc4c(Cl)cc(F)cc4[nH]2)C3)CC1 [Compound 142],84.115,6.65,
COc1cc(F)cc(NC(=O)CN2CC3CC(C2)N3CC(=O)NC2(C(F)(F)F)CC2)c1 [Compound 333],82.813,6.75,
CC(C)(C)NC(=O)CN1CC2COCC(C1)N2Cc1nc2c(Cl)cc(F)cc2[nH]1 [Compound 153],82.059,6.41,
CC(C)(C)NC(=O)CN1CCCN(Cc2nc3c(Cl)cc(F)cc3[nH]2)CC1 [Compound 70],87.175,6.26,
CC(C)(C)NC(=O)CN1C2CCC1CN(Cc1nc(-c3ccccc3)c[nH]1)C2 [Compound 196],83.677,,
CC(C(=O)Nc1cc(F)cc(Cl)c1)N1C[C@@H]2C[C@H]1CN2CC(=O)NC1(C(F)(F)F)CC1 (stereo partly shown) [Compound 262],87.794,6.67,
CC(C)(C)NC(=O)CN1C2CC1CN(Cc1nc3c(Cl)cc(F)cc3o1)C2 [Compound 115],,5.36,
O=C(CN1CC2CC(C1)N2CCNC(=O)C1(C(F)(F)F)CC1)Nc1cc(F)cc(Cl)c1 [Compound 232],98.914,6.86,
Fc1cc(Cl)c2nc(CN3CC4CC(C3)N4CC3(F)CCC(F)(F)CC3)[nH]c2c1 [Compound 152],70.533,,> 7.11
Cc1cc(F)cc(NC(=O)CN2CC3CC(C2)N3CC(=O)NC(C)(C)C)c1 [Compound 215],100,,
Fc1cc(Cl)c2nc(CN3CC4CCC(C3)N4CCC3CCCC3)[nH]c2c1 [Compound 84],101,,
